Values after ≈ are worked out from the molar mass of the structure shown. Active and inactive are the calls of the source. The calls are words filed in the database; no cut-off is given here.
Legend:
Staphylococcus aureus [1] = assay: Antimicrobial activity against Staphylococcus aureus ATCC 25923 assessed as diameter of growth inhibition zone at 1 mg/ml after 24 hr by agar diffusion method; format: functional; settings: ATCC 25923, 24 h, read-out: DIZ
Streptococcus pyogenes [2] = assay: Antimicrobial activity against Streptococcus pyogenes ATCC 19615 assessed as diameter of growth inhibition zone at 1 mg/ml after 24 hr by agar diffusion method; format: functional; settings: ATCC 19615, 24 h, read-out: DIZ
Aspergillus fumigatus [3] = assay: Antimicrobial activity against Aspergillus fumigatus assessed as growth inhibition after 24 to 48 hr by two-fold serial dilution method; format: functional
[4] = tested on: Pseudomonas savastanoi pv. phaseolicola; assay: Antimicrobial activity against Pseudomonas syringae pv. phaseolicola GSPB 2828 assessed as growth inhibition after 24 to 48 hr by two-fold serial dilution method; format: functional
Streptococcus pyogenes [5] = assay: Antimicrobial activity against Streptococcus pyogenes ATCC 19615 assessed as growth inhibition after 24 to 48 hr by two-fold serial dilution method relative to chloramphenicol; format: functional
Aspergillus fumigatus [6] = assay: Antimicrobial activity against Aspergillus fumigatus assessed as diameter of growth inhibition zone at 1 mg/ml by agar diffusion method; settings: read-out: DIZ
Fusarium oxysporum [7] = assay: Antimicrobial activity against Fusarium oxysporum assessed as diameter of growth inhibition zone at 1 mg/ml […] by agar diffusion method; format: functional; settings: read-out: DIZ
Streptococcus pyogenes [8] = assay: Antimicrobial activity against Streptococcus pyogenes ATCC 19615 assessed as growth inhibition after 24 to 48 hr by two-fold serial dilution method; format: functional
Staphylococcus aureus [9] = assay: Antimicrobial activity against Staphylococcus aureus ATCC 25923 assessed as growth inhibition after 24 to 48 hr by two-fold serial dilution method; format: functional
Pseudomonas fluorescens [10] = assay: Antimicrobial activity against Pseudomonas fluorescens S 97 assessed as growth inhibition after 24 to 48 hr by two-fold serial dilution method; format: functional
[11] = tested on: Pseudomonas savastanoi pv. phaseolicola; assay: Antimicrobial activity against Pseudomonas syringae pv. phaseolicola GSPB 2828 assessed as diameter of growth inhibition zone at 1 mg/ml after 24 hr by agar diffusion method; format: functional; settings: GSPB 2828, 24 h, read-out: DIZ
Fusarium oxysporum [12] = assay: Antimicrobial activity against Fusarium oxysporum assessed as growth inhibition after 24 to 48 hr by two-fold serial dilution method; format: functional
Staphylococcus aureus [13] = assay: Antimicrobial activity against Staphylococcus aureus ATCC 25923 assessed as growth inhibition after 24 to 48 hr by two-fold serial dilution method relative to chloramphenicol; format: functional
Pseudomonas fluorescens [14] = assay: Antimicrobial activity against Pseudomonas fluorescens S 97 assessed as diameter of growth inhibition zone at 1 mg/ml after 24 hr by agar diffusion method; format: functional; settings: S 97, 24 h, read-out: DIZ
Staphylococcus aureus [15] = assay: Antimicrobial activity against Staphylococcus aureus ATCC 25923 assessed as growth inhibition after 24 to 48 hr by two-fold serial dilution method relative to cephalothin; format: functional

Row | Structure (SMILES) | zone of inhibition at 1000 µg/mL (Staphylococcus aureus [1]) [mm] | zone of inhibition at 1000 µg/mL (Streptococcus pyogenes [2]) [mm] | MIC (Aspergillus fumigatus [3]) | MIC [4] [µg/mL] | growth inhibition (GI) (Streptococcus pyogenes [5]) [%] | zone of inhibition at 1000 µg/mL (Aspergillus fumigatus [6]) [mm] | zone of inhibition at 1000 µg/mL (Fusarium oxysporum [7]) [mm] | MIC (Streptococcus pyogenes [8]) [µg/mL] | MIC (Staphylococcus aureus [9]) [µg/mL] | MIC (Pseudomonas fluorescens [10]) | zone of inhibition at 1000 µg/mL [11] [mm] | MIC (Fusarium oxysporum [12]) [µg/mL] | growth inhibition (GI) (Staphylococcus aureus [13]) [%] | zone of inhibition at 1000 µg/mL (Pseudomonas fluorescens [14]) [mm] | growth inhibition (GI) (Staphylococcus aureus [15]) [%]
1 | Cc1ccc(C2CC(c3ccc(-n4c(-c5ccc(OS(=O)(=O)c6ccc(C)cc6)cc5)nc5ccccc5c4=O)cc3)=NN2)cc1 (stereo not drawn) | 43 | 38 | 12.5 µg/mL (≈ 19.9 µM) | 50 (≈ 79.8 µM) | 50 | 31 | 14 | 6.25 (≈ 9.97 µM) | 3.12 (≈ 4.99 µM) | inactive | 19 | – | – | – | –
2 | C[C@@H]1C[C@@H]([C@H](O)CC2CC(=O)NC(=O)C2)C(=O)[C@@H](C)C1 [CYCLOHEXIMIDE] | – | – | 3.12 µg/mL (≈ 11.1 µM) | – | – | 42 | 43 | – | – | – | – | 3.12 (≈ 11.1 µM) | – | – | –
3 | Cc1ccc(S(=O)(=O)Oc2ccc(-c3nc4ccccc4c(=O)n3C3=NNC(=O)C3/N=N/c3ccccc3)cc2)cc1 (stereo not drawn) | 32 | 14 | – | 50 (≈ 86.4 µM) | – | 16 | 31 | – | 12.5 (≈ 21.6 µM) | – | 20 | 12.5 (≈ 21.6 µM) | 25 | 16 | 50
4 | Cc1ccc(S(=O)(=O)Oc2ccc(-c3nc4ccccc4c(=O)n3-c3nc4ccccc4s3)cc2)cc1 | 38 | 37 | inactive | 50 (≈ 95.1 µM) | 50 | – | 14 | 6.25 (≈ 11.9 µM) | 6.25 (≈ 11.9 µM) | 50 µg/mL (≈ 95.1 µM) | 19 | – | 50 | 20 | –
5 | Cc1ccc(S(=O)(=O)Oc2ccc(-c3nc4ccccc4c(=O)n3-n3c(C)nc4ccccc4c3=O)cc2)cc1 | 19 | 15 | 6.25 µg/mL (≈ 11.4 µM) | – | – | 38 | 15 | – | 50 (≈ 90.8 µM) | 50 µg/mL (≈ 90.8 µM) | 14 | – | – | 19 | –
6 | Cc1ccc(S(=O)(=O)Oc2ccc(-c3nc4ccccc4c(=O)n3-c3ccc(C4=NNC(c5ccccc5)C4)cc3)cc2)cc1 (stereo not drawn) | 43 | 38 | 12.5 µg/mL (≈ 20.4 µM) | 50 (≈ 81.6 µM) | 50 | 31 | 14 | 6.25 (≈ 10.2 µM) | 3.12 (≈ 5.1 µM) | inactive | 19 | – | – | – | –
7 | Cc1ccc(S(=O)(=O)Oc2ccc(-c3nc4ccccc4c(=O)n3-c3ccc(N)cc3)cc2)cc1 | 14 | 15 | 25 µg/mL (≈ 51.7 µM) | – | – | 26 | 37 | – | – | 50 µg/mL (≈ 103 µM) | 15 | 6.25 (≈ 12.9 µM) | – | 18 | –
8 | Cc1ccc(S(=O)(=O)Oc2ccc(-c3nc4ccccc4c(=O)n3-c3nccs3)cc2)cc1 | 38 | 38 | 50 µg/mL (≈ 105 µM) | – | 50 | 19 | 15 | 6.25 (≈ 13.1 µM) | 6.25 (≈ 13.1 µM) | – | 14 | – | 50 | 16 | –
